Data from patent publication US8193203B2, “Bicyclic compounds having activity at the CXCR4 receptor” (Allergan, Inc., priority 2008, dated 2012).

Target: T1, human CXCR4 receptor (Homo sapiens, UniProt P61073)
T1 construct: expressed in transfected cells
Experiment: Measurement of intracellular Ca+2 responses (FLIPR), antagonism of the SDF-1α response
Type: cell-based
Conditions: for IC50: HEK-Gqi5 cells stably expressing human CXCR4, Fluo-4 FLIPR, antagonism of SDF-1α 1.9 nM (EC65); for CXCR4 (% Inh): percent antagonism of SDF-1α 1.9 nM (EC65) response, HEK-Gqi5 human CXCR4 cells, value in brackets
In short: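 HEK-Gqi5 cells stably expressing CXCR4, Fluo-4-loaded (2 uM, 40 min, 37 °C), read on FLIPR. Compound (2.44-40,000 nM) added first for agonism, then SDF-1α at 1.9 nM final (EC65); IC50 and percent antagonism from second-addition calcium signal.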

T1 sequence (P61073 whole entry): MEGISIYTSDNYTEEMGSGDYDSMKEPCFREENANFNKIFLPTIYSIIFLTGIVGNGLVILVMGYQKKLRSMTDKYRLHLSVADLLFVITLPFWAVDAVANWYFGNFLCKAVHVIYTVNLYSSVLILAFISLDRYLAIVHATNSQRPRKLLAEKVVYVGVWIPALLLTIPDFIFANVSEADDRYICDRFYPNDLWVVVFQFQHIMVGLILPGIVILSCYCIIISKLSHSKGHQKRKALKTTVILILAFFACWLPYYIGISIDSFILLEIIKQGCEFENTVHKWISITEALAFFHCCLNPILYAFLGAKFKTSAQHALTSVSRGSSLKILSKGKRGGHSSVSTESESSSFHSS

Compound | IC50 (values in nM) [nM] | CXCR4 (% Inh) [%] | IC50 (values given in μM) [nM]
CN(C)CCCNc1nc(NC2CCN(Cc3c(OCCN(C)C)cccc3N(C)C)CC2)c2ccccc2n1 [Compound 228, N4-(1-(2-(Dimethylamino)-6-(2-(dimethylamino)ethoxy)benzyl)piperidin-4-yl)-N2-(3-(dimethylamino)propyl)quinazoline-2,4-diamine] | 71 | 98 | –
COc1cc2nc(NCCN(C)C)nc(NC3CCN(Cc4c(OCCN(C)C)cccc4N(C)C)CC3)c2cc1OC [Compound 229, N4-(1-(2-(Dimethylamino)-6-(2-(dimethylamino)ethoxy)benzyl)piperidin-4-yl)-N2-(2-(dimethylamino)ethyl)-6,7-dimethoxyquinazoline-2,4-diamine] | 41 | 96 | –
COc1cc2nc(NCC3CNC3)nc(NC3CCN(Cc4c(OCCN(C)C)cccc4N(C)C)CC3)c2cc1OC [Compound 230, N2-(Azetidin-3-ylmethyl)-N4-(1-(2-(dimethylamino)-6-(2-(dimethylamino)ethoxy)benzyl)piperidin-4-yl)-6,7-dimethoxyquinazoline-2,4-diamine] | 56 | 96 | –
COc1cc2nc(SCCN(C)C)nc(NC3CCN(Cc4c(OCCN(C)C)cccc4N(C)C)CC3)c2cc1OC [Compound 231, N-(1-(2-(Dimethylamino)-6-(2-(dimethylamino)ethoxy)benzyl)piperidin-4-yl)-2-(2-(dimethylamino)ethylthio)-6,7-dimethoxyquinazolin-4-amine] | 131 | 96 | –
N˜4˜-(1-{2-(Dimethylamino)-6-[2-(dimethylamino)ethoxy]benzyl}piperidin-4-yl)-6,7-dimethoxy-N2(1H-1,2,4-triazol-5-ylmethyl)quinazoline-2,4-diamine [Compound 211] | 25 | 98 | –
N˜4˜-{1-[2-(Dimethylamino)-6-methoxybenzyl]pyrrolidin-3-yl}-N˜2˜-[3-(dimethylamino)propyl]-6,7-dimethoxyquinazoline-2,4-diamine [Compound 161] | – | 92 | 1900
N˜4˜-{1-[2-(Dimethylamino)-6-methoxybenzyl]pyrrolidin-3-yl}-N˜2˜-[3-(dimethylamino)propyl]-6,7-dimethoxyquinazoline-2,4-diamine [Compound 165] | 538 | 97 | –
